Laboratory results published in paper PMC11124394, “Novel Combretastatin A-4 Analogs—Design, Synthesis, and Antiproliferative and Anti-Tubulin Activity” (Molecules, 2024).
Read-outs that look alike come from different tables or passages of the source.

How the values were obtained:
Format in all cases: cell-based
[1] = system: HepG2 (liver cancer) cells; assay: SRB cytotoxicity assay, HepG2; conditions: Homo sapiens, read-out: Cytotoxicity IC50, HepG2
Method: (§1) The antiproliferative activity was tested on human primary (SW480) and metastatic (SW620) colon cancer, human prostate cancer (PC3), human liver cancer (HepG2), human breast cancer (MDA), human lung cancer (A549), and human immortalized keratinocyte (HaCaT) cell lines obtained from the American Type Culture Collection (ATCC, Rockville, MD, USA). The cells were cultured in EMEM (SW480 and SW620), RPMI 1640 (PC3) or DMEM High Glucose (HepG2, MDA, A549, and HaCaT) with stable glutamine supplemented with 10% heat-inactivated fetal bovine serum (FBS), penicillin (100 U/mL), and streptomycin (100 µg/mL) in 37 °C and 5% CO2/95% air humified incubator. The cells were grown until 80–90% confluence and then were harvested with 0.25% trypsin and used for the experiments. All the reagents for the cell culture were provided by VWR Chemicals.
(§2) Cytotoxicity was tested with the sulforhodamine B (SRB) assay according to the National Cancer Institute protocol with slight modifications. Briefly, cells were seeded on a 96-well plate (5 × 10^3 cells per well). After 24 h incubation, zero-time control cells were fixed with TCA (final concentration 5%) for 1 h at 4 °C. […] The untreated cells were used as the control. After incubation, the cells were fixed with TCA (final concentration 5%) for 1 h at 4 °C, gently washed 4 times with tap water, and left for drying. The dried fixed cells were incubated with SRB solution (0.05% SRB in 1% acetic acid) for 30 min rt, washed four times with 1% acetic acid, and left for drying. The dried cells were dissolved in 10 mM Tris-base solution (pH 10.5) and the absorbance was read at 510 nm.
(§3) The cell viability was presented as a percent of SRB reduction in the treated cells versus that in control cells. The mean absorbance for control cells was assumed as 100%. No-cell control (blank well) absorbance was assumed as 0%, unless the compound was cytostatic, then 0% referred to zero-time control. The IC50 values were calculated using the GraphPad Prism 10.1.2 (324) (USA) software. The most cytotoxic compounds (8 and 20) were selected for further in vitro experiments.

[2] = SRB cytotoxicity assay, HaCaT; conditions: human, 48 h culture, mean ± SD, at least three independent experiments, compounds marked * : low solubility, real values might be lower
Method: as §1, §2, §3

[3] = system: SW480 (primary colon cancer) cells; assay: SRB cytotoxicity assay, SW480; conditions: Homo sapiens, read-out: Cytotoxicity IC50, SW480
Method: as §1, §2, §3

[4] = system: MDA (breast cancer) cells; assay: SRB cytotoxicity assay, MDA; conditions: Homo sapiens, read-out: Cytotoxicity IC50, MDA
Method: as §1, §2, §3

[5] = system: SW620 (metastatic colon cancer) cells; assay: SRB cytotoxicity assay, SW620; conditions: Homo sapiens, read-out: Cytotoxicity IC50, SW620
Method: as §1, §2, §3

[6] = system: six human cancer cell lines (SW480, SW620, PC3, HepG2, MDA, A549) and HaCaT; assay: SRB cytotoxicity assay, whole panel; conditions: cell line panel
Method: The antiproliferative properties of the studied combretastatin derivatives were tested on six human cancer cell lines, including primary colon (SW480), metastatic colon (SW620), prostate (PC3), liver (HepG2), breast (MDA), and lung (A549) cancer cells, and non-tumor human immortalized keratinocyte cell line (HaCaT) using the sulforhodamine B (SRB) assay. […] No selectivity was observed against the tumor cell lines when compared to that against the non-tumor cell line. Nevertheless, these values were much higher than the IC50 of the reference compounds (<0.2 μM).
as §1, §2, §3

[7] = system: PC3 (prostate cancer) cells; assay: SRB cytotoxicity assay, PC3; conditions: Homo sapiens, read-out: Cytotoxicity IC50, PC3
Method: as §1, §2, §3

A549 (lung cancer) cells = assay: SRB cytotoxicity assay, A549; conditions: Homo sapiens, read-out: Cytotoxicity IC50, A549
Method: as §1, §2, §3

[8] = HepG2, SRB assay, 48 h culture, mean ± SD, at least three independent experiments, compounds marked * : low solubility, real values might be lower
[9] = HaCaT immortalized keratinocyte cells (non-tumor cell line)
[10] = SW480, SRB assay, 48 h culture, mean ± SD, at least three independent experiments, compounds marked * : low solubility, real values might be lower
[11] = SRB assay, 48 h culture, mean ± SD, at least three independent experiments, compounds marked * : low solubility, real values might be lower
[12] = SW-620, SRB assay, 48 h culture, mean ± SD, at least three independent experiments, compounds marked * : low solubility, real values might be lower
[13] = A549, SRB assay, 48 h culture, mean ± SD, at least three independent experiments, compounds marked * : low solubility, real values might be lower

Row | Structure (SMILES) | IC50 [1, 8] | IC50 at 48 h [2, 9] | IC50 [3, 10] | IC50 [4, 11] | IC50 [5, 12] | Cytotoxicity (in words) [6] | IC50 [7, 11] | IC50 (A549 (lung cancer) cells; [13]) | IC50 ([1]; HepG2, 48 h) | IC50 at 48 h ([2]; non-tumor cell line) | IC50 ([3]; SW480, 48 h) | IC50 ([4]; 48 h) | IC50 ([5]; SW-620, 48 h) | IC50 ([7]; 48 h) | IC50 (A549 (lung cancer) cells; A549, 48 h)
1 | COc1ccc(/C(=C\c2cc(OC)c(OC)c(OC)c2)C(=O)OCCCCCCBr)cc1Br [Compound 9] | > 100 µM | > 100 µM | > 100 µM | > 100 µM | > 100 µM | did not show any cytotoxicity | > 100 µM | > 100 µM |  |  |  |  |  |  | 
2 | COc1cc2c(c(OC)c1OC)-c1ccc(OC)c(=O)cc1[C@@H](NC(C)=O)CC2 [colchicine, reference compound] |  |  |  |  |  |  |  |  | 0.107 ± 0.025 µM | 0.104 ± 0.012 µM | 0.166 ± 0.065 µM | 0.11 ± 0.015 µM | 0.13 ± 0.089 µM | 0.118 ± 0.047 µM | 0.094 ± 0.009 µM
3 | COc1ccc(/C(=C\c2cc(OC)c(OC)c(OC)c2)C(=O)O)cc1Br [Compound 3] | > 100 µM | > 100 µM | > 100 µM | > 100 µM | > 100 µM | does not have any anticancer potential | > 100 µM | > 100 µM |  |  |  |  |  |  | 
4 | COc1ccc(/C(=C\c2cc(OC)c(OC)c(OC)c2)C(=O)NCc2ccccc2Cl)cc1Br [Compound 16] | > 100 µM | > 100 µM | > 100 µM | 99.8 ± 3.9 µM | > 100 µM |  | > 100 µM | 92.8 ± 7.7 µM |  |  |  |  |  |  | 
5 | COc1ccc(/C(=C\c2cc(OC)c(OC)c(OC)c2)C(=O)OCc2ccccc2)cc1Br [Compound 7] | > 100 µM | > 100 µM | > 100 µM | > 100 µM | > 100 µM |  | > 100 µM | > 100 µM |  |  |  |  |  |  | 
6 | COc1ccc(/C(=C\c2cc(OC)c(OC)c(OC)c2)C(=O)N(Cc2ccccc2)Cc2ccccc2)cc1Br [Compound 22] | > 100 µM | > 100 µM | > 100 µM | > 100 µM | > 100 µM |  | > 100 µM | > 100 µM |  |  |  |  |  |  | 
7 | CCOC(=O)/C(=C/c1cc(OC)c(OC)c(OC)c1)c1ccc(OC)c(Br)c1 [Compound 5] | 42.1 ± 10.2 µM | 45 ± 7.2 µM | 73.6 ± 8.4 µM | 45.2 ± 5.5 µM | 57.5 ± 3.9 µM |  | 43.2 ± 10.2 µM | 46.6 ± 12.1 µM |  |  |  |  |  |  | 
8 | COc1ccc(/C(=C\c2cc(OC)c(OC)c(OC)c2)C(=O)NCc2ccccc2[N+](=O)[O-])cc1Br [Compound 15] | > 100 µM | > 100 µM | > 100 µM | > 100 µM | > 100 µM |  | > 100 µM | > 100 µM |  |  |  |  |  |  | 
9 | COc1ccc(/C(=C\c2cc(OC)c(OC)c(OC)c2)C(=O)Nc2ccccc2)cc1Br [Compound 14] | > 100 µM | > 100 µM | > 100 µM | > 100 µM | > 100 µM |  | > 100 µM | > 100 µM |  |  |  |  |  |  | 
10 | COc1ccc(/C(=C\c2cc(OC)c(OC)c(OC)c2)C(=O)NCc2cccc(Cl)c2)cc1Br [Compound 17] | > 100 µM | > 100 µM | > 100 µM | > 100 µM | > 100 µM |  | > 100 µM | > 100 µM |  |  |  |  |  |  | 
